Patent US8026218B2, “Bifunctional analgesic compounds for opioid receptor agonists and neurokinin-1 receptor antagonists” (The University of Arizona, priority 2006, dated 2011)
Like-named read-outs stand apart in the source and are kept apart here.

Columns and labels:
rat NK1 (rNK1) receptor = target: T1, rat NK1 (rNK1) receptor (Rattus norvegicus, UniProt P14600); assay: Radioligand competition binding, [3H]substance P, rNK1/CHO membranes; settings: Table 29; read-out: Affinity rNK1 (Ki; nM)
T1 construct: expressed in transfected cells; host or cells: CHO (rNK-1/CHO cell line from Dr. James Krause)

[1] = target: T2, human NK1 receptor (hNK1) (Homo sapiens, UniProt P25103); assay: Radioligand competition binding, [3H]-Substance P, hNK1; settings: Ki rNK1 vs Ki hNK1
T2 construct: expressed in transfected cells

δ opioid receptors (MVD) = target: T3, δ opioid receptors (MVD) (Mus musculus, UniProt P32300); assay: Mouse isolated vas deferens (MVD) assay, opioid agonist
T3 construct: from tissue; host or cells: mouse (ICR) isolated vas deferens

μ opioid receptors (GPI) = assay: Guinea pig isolated ileum (GPI) assay, opioid agonist;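 also: inhibition of electrically evoked contractions (0.1 Hz, 0.4 msec, supramaximal voltage) in organ baths at 37 °C, contraction height 3 min after each cumulative dose versus the 1 min before dosing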
[2] = target: T4, Substance P receptors (guinea pig NK1) (Cavia porcellus, UniProt P30547); assay: Guinea pig isolated ileum (GPI) assay with substance P stimulation in presence of 1 μM naloxone
T4 construct: from tissue; host or cells: guinea pig (Hartley) ileum LMMP, 1 μM naloxone present

[3] = Octanol/saline distribution (logD7.4); format: physicochemical
Protocol: HEPES buffer (0.05 M HEPES buffer in 0.1 M NaCl, pH 7.4, 500 μL) was added to 2 mg of compound and mixed with 500 μL of 1-octanol. The sample was shaken at r.t. for 12 h to allow equilibrating. The sample was centrifuged at 6500 rpm in a VanGuard V6500 (GlaxoSmithKline, Research Triangle Park, N.C.) for 15 min. The layers were separated and each layer was centrifuged once again. The compound concentrations of obtained layers were analyzed by HPLC (30-70% of acetonitrile containing 0.1% TFA within 20 min and up to 95% within additional 5 min, 1 mL/min, 230 nm, Vydac 218TP104 C-18 column). The logarithm of 1-octanol/saline distribution (logD7.4) was calculated as the ratio of compound concentration in the 1-octanol and saline phases.
Octanol/saline distribution (logD7.4) (Yamamoto, 2007, J. Med. Chem., submitted). HEPES buffer (0.05 M HEPES buffer in 0.1 M NaCl, pH 7.4, 500 μL) was added to 2 mg of compound and mixed with 500 μL of 1-octanol. The sample was shaken at r.t. for 12 h to allow equilibrating. The sample was centrifuged at 6500 rpm in a VanGuard V6500 (GlaxoSmithKline, Research Triangle Park, N.C.) for 15 min. The layers were separated and each layer was centrifuged once again. The compound concentrations in the obtained layers were analyzed by HPLC (30-70% of acetonitrile containing 0.1% TFA within 20 min and up to 95% within additional 5 min, 1 mL/min, 230 nm, Vydac 218TP104 C-18 column). The logarithm of 1-octanol/saline distribution (logD7.4) was calculated as the ratio of compound concentration in the 1-octanol and saline phases.

[4] = Solubility in HEPES buffer; format: physicochemical
Protocol: Solubility. HEPES buffer (0.05 M HEPES buffer in 0.1 M NaCl, pH 7.4, 500 μL) was added to 1 mg of compound. The sample was vortexed for 30 sec, sonicated for 5 min, shaken at r.t. for 2 h, and then allowed to be stayed overnight to equilibration. The sample was filtrated with an Acrodisc Syringe Filter (13 mm, 0.45 μm pore, PTFE membrane, Pall Life Sciences, East Hills, N.Y.).

[5] = target: T5, human δ opioid receptors (hDOR) (Homo sapiens, UniProt P41143); assay: [35S]GTP-γ-S binding assay, hDOR; format: biochemical
T5 construct: expressed in transfected cells; host or cells: HN9.10 neuroblastoma cell line, pCDNA3, neomycin-selected clones

MOR = MOR (Homo sapiens, UniProt P35372); settings: previous studies; read-out: Affinity (Ki in nM), MOR; cited from earlier work
rNK1 = rNK1 (Rattus norvegicus, UniProt P14600); settings: previous studies; read-out: Affinity (Ki in nM), rNK1; cited from earlier work
[6] = Table 39, read-out: GPI/LMMP opioid(mu) agonist (IC50; nM)

Sequence of rNK1 (P14600 whole entry): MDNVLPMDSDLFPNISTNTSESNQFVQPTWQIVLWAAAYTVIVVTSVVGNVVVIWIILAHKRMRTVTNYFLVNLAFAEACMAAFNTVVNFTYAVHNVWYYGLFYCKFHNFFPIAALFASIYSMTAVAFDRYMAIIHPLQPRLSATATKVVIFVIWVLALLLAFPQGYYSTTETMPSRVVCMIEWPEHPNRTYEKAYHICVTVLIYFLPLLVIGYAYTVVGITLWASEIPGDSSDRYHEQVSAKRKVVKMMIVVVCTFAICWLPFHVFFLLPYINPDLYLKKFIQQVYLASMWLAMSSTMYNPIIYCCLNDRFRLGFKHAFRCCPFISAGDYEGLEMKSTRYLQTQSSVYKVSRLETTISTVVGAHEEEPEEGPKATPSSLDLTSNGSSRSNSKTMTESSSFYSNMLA
Sequence of MOR (P35372 whole entry): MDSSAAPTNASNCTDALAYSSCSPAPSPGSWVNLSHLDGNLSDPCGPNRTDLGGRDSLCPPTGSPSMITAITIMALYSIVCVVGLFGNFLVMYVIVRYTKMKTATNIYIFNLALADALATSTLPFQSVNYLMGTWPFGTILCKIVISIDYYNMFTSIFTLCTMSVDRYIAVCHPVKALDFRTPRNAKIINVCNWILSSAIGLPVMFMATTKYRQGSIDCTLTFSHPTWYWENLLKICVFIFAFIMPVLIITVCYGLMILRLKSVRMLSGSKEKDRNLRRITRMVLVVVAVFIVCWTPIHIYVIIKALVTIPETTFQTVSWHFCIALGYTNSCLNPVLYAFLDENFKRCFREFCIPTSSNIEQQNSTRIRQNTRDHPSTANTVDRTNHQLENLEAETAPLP
T5 sequence (P41143 whole entry): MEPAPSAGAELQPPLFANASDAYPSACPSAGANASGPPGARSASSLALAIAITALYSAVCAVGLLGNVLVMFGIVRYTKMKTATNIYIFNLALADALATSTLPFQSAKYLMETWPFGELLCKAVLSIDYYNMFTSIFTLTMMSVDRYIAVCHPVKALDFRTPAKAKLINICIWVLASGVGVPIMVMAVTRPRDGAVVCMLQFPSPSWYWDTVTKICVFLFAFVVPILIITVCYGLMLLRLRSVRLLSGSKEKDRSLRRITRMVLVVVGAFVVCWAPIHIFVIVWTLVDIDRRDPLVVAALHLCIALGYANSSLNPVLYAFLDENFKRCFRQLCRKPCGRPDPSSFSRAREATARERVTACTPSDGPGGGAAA
T3 sequence (P32300 whole entry): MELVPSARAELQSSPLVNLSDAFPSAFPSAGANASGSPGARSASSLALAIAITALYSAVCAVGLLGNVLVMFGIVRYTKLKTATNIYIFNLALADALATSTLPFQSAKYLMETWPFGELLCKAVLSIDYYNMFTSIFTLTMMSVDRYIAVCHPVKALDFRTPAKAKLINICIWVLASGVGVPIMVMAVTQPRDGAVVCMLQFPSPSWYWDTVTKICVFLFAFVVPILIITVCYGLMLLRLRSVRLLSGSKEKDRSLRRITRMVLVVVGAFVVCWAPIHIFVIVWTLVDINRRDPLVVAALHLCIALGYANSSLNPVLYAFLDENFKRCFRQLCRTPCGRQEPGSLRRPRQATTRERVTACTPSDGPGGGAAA
T4 sequence (P30547 whole entry): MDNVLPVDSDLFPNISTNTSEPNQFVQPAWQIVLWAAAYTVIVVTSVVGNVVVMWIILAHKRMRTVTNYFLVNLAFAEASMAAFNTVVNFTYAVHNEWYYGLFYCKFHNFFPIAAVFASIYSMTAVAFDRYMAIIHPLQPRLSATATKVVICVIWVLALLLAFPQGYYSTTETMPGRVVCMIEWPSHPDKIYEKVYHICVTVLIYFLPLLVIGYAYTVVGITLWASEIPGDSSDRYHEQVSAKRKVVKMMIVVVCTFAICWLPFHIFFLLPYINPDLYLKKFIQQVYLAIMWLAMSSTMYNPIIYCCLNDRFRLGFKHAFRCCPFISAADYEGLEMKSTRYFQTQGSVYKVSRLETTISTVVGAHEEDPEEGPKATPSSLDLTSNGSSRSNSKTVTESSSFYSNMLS
T1 sequence (P14600 whole entry): as the sequence (P14600 whole entry) above
T2 sequence (P25103 whole entry): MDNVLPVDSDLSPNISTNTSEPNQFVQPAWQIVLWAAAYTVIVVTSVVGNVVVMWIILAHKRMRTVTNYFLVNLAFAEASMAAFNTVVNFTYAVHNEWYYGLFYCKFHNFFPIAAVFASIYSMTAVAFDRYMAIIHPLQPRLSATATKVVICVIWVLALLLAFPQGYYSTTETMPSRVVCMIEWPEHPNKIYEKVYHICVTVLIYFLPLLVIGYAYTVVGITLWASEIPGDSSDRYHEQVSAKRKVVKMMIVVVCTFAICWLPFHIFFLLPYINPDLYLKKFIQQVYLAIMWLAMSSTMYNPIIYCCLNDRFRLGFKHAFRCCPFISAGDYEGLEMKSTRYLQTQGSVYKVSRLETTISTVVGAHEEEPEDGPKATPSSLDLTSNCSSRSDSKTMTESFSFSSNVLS

Compound: CSCC[C@H](NC(=O)[C@H](Cc1ccccc1)NC(=O)CNC(=O)[C@@H](C)NC(=O)[C@@H](N)Cc1ccc(O)cc1)C(=O)N1CCC[C@H]1C(=O)N[C@@H](CC(C)C)C(=O)N[C@@H](Cc1c[nH]c2ccccc12)C(=O)NCc1cc(C(F)(F)F)cc(C(F)(F)F)c1 [TY027, H-Tyr-D-Ala-Gly-Phe-Met-Pro-Leu-Trp-NH-3,5-Bzl(CF3)2]
- Ki (rat NK1 (rNK1) receptor): 7.27 nM
- species difference between affinities at rNK1 and hNK1 [1]: 1100 fold
- IC50 (δ opioid receptors (MVD)): 14.5 nM
- IC50 (μ opioid receptors (GPI); Table 16, electrically stimulated isolated tissue, read-out: Opioid agonist GPI (μ), IC50): 490 ± 29 nM
- IC50 (μ opioid receptors (GPI); Table 22, electrically stimulated isolated tissue, read-out: Opioid agonist GPI (μ), IC50): 490 ± 29 nM
- IC50 (μ opioid receptors (GPI); Table 30, read-out: GPI/LMMP Opioid(m) Agonist (IC50; nM)): 488 nM
- IC50 (μ opioid receptors (GPI); [6]): 488 nM
- IC50 (μ opioid receptors (GPI); electrically stimulated isolated tissue, read-out: GPI (μ), IC50): 490 nM
- Kb ([2]; Substance P antagonist, GPI, Ke (nM), Table 16, in the presence of 1 μM naloxone): 10 ± 2.1 nM
- logD7.4 ([3]; 0.05 N HEPES buffer in 0.1 N NaCl): >4.0
- solubility ([4]; pH 7.4, 0.05 N HEPES buffer in 0.1 N NaCl solution): < 0.2 µg/mL

Compound: CCCC[C@H](NC(=O)[C@H](Cc1ccccc1)NC(=O)CNC(=O)[C@@H](C)NC(=O)[C@@H](N)Cc1ccc(O)cc1)C(=O)N1CCC[C@H]1C(=O)N[C@@H](CC(C)C)C(=O)N[C@@H](Cc1c[nH]c2ccccc12)C(=O)NCc1cc(C(F)(F)F)cc(C(F)(F)F)c1 [TY045]
- Emax ([5]; Table 24, read-out: GTP binding hDOR Emax (%)): 125%
- Emax ([5]; Table 39, read-out: GTP binding hDOR Emax): 125%
- IC50 (δ opioid receptors (MVD)): 13.6 nM
- IC50 (μ opioid receptors (GPI); Table 24, read-out: GPI/LMMP Opioid (μ) Agonist (IC50; nM)): 463 nM
- IC50 (μ opioid receptors (GPI); [6]): 463 nM
- Kb ([2]; GPI/LMMP SP Antagonist (Ke; nM), Table 24): 40.8 nM
- logD7.4 ([3]; Table 26, pH 7.4): >3.0
- solubility ([4]; Table 26, HEPES buffer pH 7.4): < 1 µg/mL

Compound: HTyrDAlaGlyPheNHNHTrpCbz [AA501]
- Ki (MOR): 80 nM
- Ki (rNK1): 5000 nM

Compound: HTyrProPhePheGlyLeuMetNH2 (H-YPFFGLM-NH2) [ESP7]
- Ki (MOR): 218 nM
- Ki (rNK1): 289 nM

Compound: HTyrProPhePheProLeuMetNH2 (H-YPFFPLM-NH2) [ESP6]
- Ki (MOR): 92 nM
- Ki (rNK1): 305 nM
